Measurements from article PMC3717777 (Toxins, 2013).
“Also recorded” adds a separate entry of the source. Where two headings read alike, the source gives them in different places.

Experiments:
[1] = target: (human) albumin; conditions: ochratoxin A to (human) albumin, ref [45], cited from earlier work
[2] = read-out: binding constant KD, aflatoxin B1; cited from earlier work
[3] = read-out: binding constant KD, aflatoxin B2; cited from earlier work
[4] = Solid phase microtitre plate binding assay with ochratoxin A-HRP; conditions: ochratoxin A-HRP serial dilutions, PBS pH 7.4, 1.5 h, room temperature, A 450 nm; for binding of ochratoxin A-HRP, amine-coupled peptide: amine coupling (NHS/EDC); for binding of ochratoxin A-HRP, thiol-coupled peptide: thiol coupling (SPDP)
Excerpt: Solid phase binding assay provides a platform to test the binding capacity of the designed peptides to ochratoxin A in vitro. Each peptide sequence was immobilized to the surface of a functionally modified (R2-NH) microtitre plate via either amine coupling using N-hydroxysuccinimide (NHS)/N-(3-dimethylaminopropyl)-N'-ethylcarbodiimide (EDC) coupling chemistry or thiol coupling using a heterobifunctional crosslinker (N-Succinimidyl 3-(2-pyridyldithio) propionate (SPDP)) employing the terminal cysteine residues of the peptide sequences to allow for site-directed surface attachment. Enzyme-labelled ochratoxin A-HRP was added in a concentration-dependent manner to the immobilized peptides, and the absorbance signal (blank subtracted) was compared for both peptides and immobilization techniques, as shown in Figure 3.
To test the initial binding of the peptides with ochratoxin A, the peptides were immobilized to a (NH)-functionally modified polystyrene microtitre plate via: (1) amine-coupling using a NHS/EDC linker and (2) thiol-coupling using SPDP, a hetero-bifunctional cross-linker reagent with amine and sulfhydryl groups.
Amine coupling was performed as follows: 100 mg L^−1 of each peptide solution in 10 mM carbonate buffer pH 9.6 was incubated on the NH-wells for 30 min, then 200 mM EDC and 50 mM NHS (1:1 v/v) were added and incubated for one hour. The plates were washed using PBST and blocked using 0.1 M ethanolamine for 30 min. Thiol coupling was performed via the immobilization of 1.5 mg mL^−1 SPDP in phosphate buffer (PBS) pH 7.4 incubated for 30 min at room temperature. The peptides were added at 100 mg L^−1 in a phosphate buffer pH 8.0 and incubated for another two hours at room temperature. The plates were washed using PBST and blocked for one hour using 1 g L^−1 cysteine in 1 M NaCl and 0.1 M sodium acetate, pH 4.0.
The binding of ochratoxin A-HRP conjugate in phosphate buffer pH 7.4 was performed at decreasing serial dilutions and incubated with the immobilized peptides for 1.5 h. The zero reference was determined with ochratoxin-HRP alone on 0.1 M ethanolamine blocked wells without immobilized peptide. All incubations were performed at room temperature. Detection was performed, after washing the microtiter plates using PBST, with the chromogenic HRP-substrate TMB in ready-made solution containing hydrogen peroxide. The absorbance was read after 20 min at 450 nm.

[5] = SPR (Biacore 3000) binding of ochratoxin A-BSA to immobilised peptide or antibody; conditions: for Kd: Biacore 3000, CM5 chip, peptide immobilised by amine coupling, ochratoxin A-BSA 0.01–100 mg L^−1, HBS-EP pH 7.4, 25 °C, 1:1 Langmuir model, estimated; for on and off rates: Biacore 3000, ochratoxin A-BSA over immobilised ligand; for on and off rates / binding affinity (in words): HBS-EP pH 7.4, 25 °C; for binding affinity (in words): Biacore 3000, ochratoxin A-BSA
Excerpt: (§1) To determine affinities for the peptide binding interaction, the peptides were immobilized on two adjacent flow cells onto a CM5 Biacore chip to a level of 251 RU (octapeptide) and 227 RU (13-mer peptide). This was in order to study the binding interaction between the peptides and ochratoxin A using a Biacore 3000. A commercial ochratoxin A-BSA conjugate was used as the analyte to obtain a significant signal response for a binding event. Initially, one saturating concentration of ochratoxin A-BSA conjugate (100 mg L^−1) was injected over each immobilized peptide ligand to confirm binding (Figure 4).
To establish the affinity of the interaction, decreasing ochratoxin A-BSA concentrations were injected onto the immobilized peptides surfaces (Figure 5).
The binding interaction analysis of the peptide receptor with ochratoxin A was carried out on a CM5 (carboxymethylated dextran) sensor chip at 25 °C. HBS-EP (0.01 M HEPES pH 7.4, 0.15 M NaCl, 3 mM EDTA, 0.005% Surfactant P20) was used as the running and dilution buffer. Peptides (100 mg L^−1 in 10 mM acetate buffer, pH 4.5) were immobilised using 0.4 M N-(3-dimethylaminopropyl)-N'-ethylcarbodiimide (EDC) and 0.1 M N-hydroxysuccinimide (NHS), applying amine coupling chemistry. In brief, a 1:1 mixture of NHS and EDC was injected as 5 μL min^−1 flow rate for 7 min, followed by injection of 75 µL peptide ligand (5 µL min^−1) for 15 min and blocking of residual binding sites with 1 M Ethanolamine, pH 8.3 (35 µL). To establish binding kinetics, various concentrations of ochratoxin A-BSA conjugate (0.01–100 mg L^−1, 60 µL in HBS-EP pH 7.4) were injected at 5 µL min^−1 over each immobilised peptide surface. BSA alone was injected as non-specific analyte control. Dissociation was monitored during 10 min without dissociating agents (flowing only running buffer). The kinetic parameters of the binding reactions were determined using BIAevaluation 3.2 software.

[6] = test system: BSA; experiment: SPR (Biacore 3000) non-specific binding control with BSA alone; conditions: immobilised peptide, BSA alone 100 mg L^−1
Excerpt: as §1
Immobilization methods, especially via amine coupling, can reduce the activity of the immobilized molecule and, thus, have reduced binding capacity, which can be substantially different from the theoretical binding capacity. This is a common and known problem in binding interaction analysis. […]
The binding interaction analysis of the peptide receptor with ochratoxin A was carried out on a CM5 (carboxymethylated dextran) sensor chip at 25 °C. […] Dissociation was monitored during 10 min without dissociating agents (flowing only running buffer). The kinetic parameters of the binding reactions were determined using BIAevaluation 3.2 software.

[7] = Water solubility of synthesized peptides; format: physicochemical
[8] = combinatorial peptide-phage display library; cited from earlier work

| Molecule | binding of ochratoxin A-HRP, amine-coupled peptide [4] | binding of ochratoxin A-HRP, thiol-coupled peptide [4] | Kd [5] [µM] | on and off rates [5] | binding affinity (in words) [5] | non-specific binding to unconjugated BSA [6] | water solubility [7] | also measured |
| --- | --- | --- | --- | --- | --- | --- | --- | --- |
| C[C@@H]1Cc2c(Cl)cc(C(=O)N[C@@H](Cc3ccccc3)C(=O)O)c(O)c2C(=O)O1 [ochratoxin A] |  |  |  |  |  |  |  | Kd ([1]; high affinity binding sites, read-out: KD, high affinity binding site): ~0.019 µM; Kd ([1]; weak affinity sites, read-out: KD, weak affinity site): ~1 µM |
| Leu-Leu-Ala-Arg-NH2 |  |  |  |  |  |  |  | Kd [2]: ~8.3 µM; Kd [3]: ~3.4 µM |
| N'-Cys-Ser-Ile-Val-Glu-Asp-Gly-Lys-C' [octapeptide] | ochratoxin A-HRP binds | much higher binding signals | 11.8 | fast on and off rates | weak affinity interactions; also recorded: weak binding affinity | no non-specific binding | water soluble |  |
| N'-Gly-Pro-Ala-Gly-Ile-Asp-Gly-Pro-Ala-Gly-Ile-Arg-Cys-C' [13-mer peptide] | decreased | good binding capacity | 15.7 | fast on and off rates; also recorded: faster on and off rates | weak binding affinity | no non-specific binding | water soluble | binding affinity (in words) ([5]; listed as 13-mer): weak affinity interactions |
| N'-Ser-Asn-Leu-His-Pro-Lys-C' |  |  |  |  |  |  |  | Kd [8]: ~2.9 µM |
